Data set [1] addresses Vascular endothelial growth factor receptor 2 (Homo sapiens, UniProt P35968). Nature of the data set: Inhibition of human KDR by time-resolved fluorescence or time-resolved fluorescence assay.
Data set [2] in a line: Antiproliferative activity against human SNU16 cells incubated for 4 days by CCK8 assay. Type of data set: functional, cell-based. The conditions noted are these: SNU-16, 96 h.
Data set [3] in a line: cells. As to conditions: Homo sapiens, HCT-116, 96 h.
Description: Antiproliferative activity against human HCT116 cells incubated for 4 days by CCK8 assay
Data set [4] in a line: Antitumor activity against human SNU16 cells xenografted in CAnN.Cg-Foxn1 (nu)/CrlCrlj nu/nu BALB nu/nu mouse assessed as tumor growth inhibition at 30 mg/kg, po qd for 11 days. The conditions noted are these: SNU-16, po, 264 h, read-out: TGI. The data set is classed as functional. A general note: In xenograft studies the graft and the host belong to different species.
Data set [5] in a line: Antitumor activity against human SNU16 cells xenografted in CAnN.Cg-Foxn1 (nu)/CrlCrlj nu/nu BALB nu/nu mouse assessed as tumor growth inhibition at 100 mg/kg, po qd for 11 days. Type of data set: functional. The conditions noted are these: SNU-16, po, 264 h, read-out: TGI.
Data set [6] deals with SNU-16. As to conditions: Homo sapiens.
Data set [7] concerns KG-1. The conditions noted are these: Homo sapiens.
Description: Antitumor activity against FGFR1OP-FGFR1 fusion protein expressing human KG1 cells xenografted in mouse
In data set [8] the test system is MFE-280. As to conditions: Homo sapiens.
Description: Antitumor activity against FGFR2 S252W mutant expressing human MFE280 cells xenografted in mouse
Data set [9] deals with UM-UC-14. The conditions noted are these: Homo sapiens.
Description: Antitumor activity against FGFR3 S249C mutant expressing human UM-UC-14 cells xenografted in mouse
Data set [10] concerns RT112/84. The conditions noted are these: Homo sapiens.
Description: Antitumor activity against FGFR3-TACC3 mutant expressing human RT112/84 cells xenografted in mouse
Data set [11] can be described thus: Solubility in FaSSIF at pH 6.5 irradiated ultrasonically for 10 mins and shaken for 2 hrs followed by centrifugation for 10 mins by HPLC-UV method. Type of data set: physicochemical.
Data set [12] is described as follows: Intrinsic clearance in human liver microsomes at 1 uM in presence of NADPH incubated for 30 mins by LC/MS method. The data set is classed as ADME. As to conditions: read-out: CLH.
Data set [13] concerns the target Voltage-gated inwardly rectifying potassium channel KCNH2 (Homo sapiens, UniProt Q12809). In words: Inhibition of human ERG expressed in CHO cells assessed as reduction in channel currents at -80 mV holding potential by automated whole-cell patch clamp method. A general note: In patch-clamp work, channel activity is measured electrically.
Data set [14] deals with hERG (KCNH2) (Homo sapiens, UniProt Q12809). Nature of the data set: Inhibition of human ERG expressed in CHO cells assessed as reduction in channel currents at 10 uM at -80 mV holding potential by automated whole-cell patch clamp method. As to conditions: CHO cells that express hERG.
Chain of hERG (KCNH2) (Q12809 whole entry): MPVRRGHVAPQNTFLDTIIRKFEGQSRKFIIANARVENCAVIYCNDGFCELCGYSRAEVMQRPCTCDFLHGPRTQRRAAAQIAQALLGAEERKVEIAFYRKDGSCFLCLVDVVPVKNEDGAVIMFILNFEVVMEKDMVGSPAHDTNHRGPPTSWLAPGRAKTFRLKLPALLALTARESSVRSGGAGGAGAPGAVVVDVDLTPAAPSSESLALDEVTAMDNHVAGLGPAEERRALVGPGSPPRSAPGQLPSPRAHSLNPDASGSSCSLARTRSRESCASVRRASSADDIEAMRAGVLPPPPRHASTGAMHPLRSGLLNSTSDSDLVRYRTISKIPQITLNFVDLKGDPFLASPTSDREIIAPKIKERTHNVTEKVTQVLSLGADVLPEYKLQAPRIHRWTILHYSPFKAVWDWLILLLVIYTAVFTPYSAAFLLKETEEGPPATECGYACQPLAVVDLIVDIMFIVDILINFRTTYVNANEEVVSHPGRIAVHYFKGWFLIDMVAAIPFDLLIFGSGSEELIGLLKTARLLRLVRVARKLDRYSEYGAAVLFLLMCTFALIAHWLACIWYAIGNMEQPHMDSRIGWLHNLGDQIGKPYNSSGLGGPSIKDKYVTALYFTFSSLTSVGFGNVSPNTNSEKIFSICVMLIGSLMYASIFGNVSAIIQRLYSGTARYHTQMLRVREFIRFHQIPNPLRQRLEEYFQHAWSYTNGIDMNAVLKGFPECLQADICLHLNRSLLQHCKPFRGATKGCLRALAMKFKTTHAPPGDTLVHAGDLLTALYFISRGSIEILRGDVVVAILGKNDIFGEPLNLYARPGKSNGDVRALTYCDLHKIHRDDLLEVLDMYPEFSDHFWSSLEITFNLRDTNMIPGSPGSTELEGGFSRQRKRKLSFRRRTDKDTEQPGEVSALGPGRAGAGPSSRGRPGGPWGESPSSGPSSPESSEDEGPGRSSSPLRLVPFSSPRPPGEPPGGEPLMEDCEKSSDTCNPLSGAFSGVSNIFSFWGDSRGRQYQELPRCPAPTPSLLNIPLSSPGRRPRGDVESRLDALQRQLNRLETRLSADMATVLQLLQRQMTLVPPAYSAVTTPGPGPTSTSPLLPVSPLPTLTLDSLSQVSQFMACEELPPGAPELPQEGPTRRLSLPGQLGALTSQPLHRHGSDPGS
Data set [15] can be described thus: Oral bioavailability cynomolgus monkey at 1 mg/kg by LC-MS/MS method. The data set is classed as ADME, organism-based, Macaca fascicularis. The conditions noted are these: in vivo.
The target in data set [16] is Fibroblast growth factor receptor 4 (Homo sapiens, UniProt P22455). In words: Inhibition of human FGFR4 by time-resolved fluorescence or time-resolved fluorescence assay.
Chain of Fibroblast growth factor receptor 4 (P22455 whole entry): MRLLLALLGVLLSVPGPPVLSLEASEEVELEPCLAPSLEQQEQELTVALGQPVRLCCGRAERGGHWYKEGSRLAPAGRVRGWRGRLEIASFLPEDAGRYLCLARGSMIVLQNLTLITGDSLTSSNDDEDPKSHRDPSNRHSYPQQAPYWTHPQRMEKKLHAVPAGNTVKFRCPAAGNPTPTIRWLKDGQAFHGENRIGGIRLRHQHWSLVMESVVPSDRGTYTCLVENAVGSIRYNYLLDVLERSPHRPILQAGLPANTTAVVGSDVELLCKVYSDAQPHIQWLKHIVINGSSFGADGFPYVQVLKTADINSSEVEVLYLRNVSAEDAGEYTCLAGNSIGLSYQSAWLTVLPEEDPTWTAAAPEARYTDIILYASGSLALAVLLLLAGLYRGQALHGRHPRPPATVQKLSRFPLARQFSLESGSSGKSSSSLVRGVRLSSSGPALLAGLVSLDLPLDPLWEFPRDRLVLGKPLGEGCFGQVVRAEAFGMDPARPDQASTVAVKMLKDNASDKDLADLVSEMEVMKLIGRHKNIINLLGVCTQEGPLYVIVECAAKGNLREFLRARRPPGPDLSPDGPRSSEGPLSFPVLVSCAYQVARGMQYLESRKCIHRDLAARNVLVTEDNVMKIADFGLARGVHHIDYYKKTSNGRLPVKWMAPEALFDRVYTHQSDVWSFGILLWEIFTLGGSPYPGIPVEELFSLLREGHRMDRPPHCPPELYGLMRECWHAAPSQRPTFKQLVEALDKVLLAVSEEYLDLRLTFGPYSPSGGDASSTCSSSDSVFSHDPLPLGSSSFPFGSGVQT
Data set [17] concerns the target Fibroblast growth factor receptor 1 (Homo sapiens, UniProt P11362).
Description: Inhibition of human FGFR1 by time-resolved fluorescence or time-resolved fluorescence assay
Data set [18] deals with Fibroblast growth factor receptor 3 (Homo sapiens, UniProt P22607).
Description: Inhibition of human FGFR3 by time-resolved fluorescence or time-resolved fluorescence assay
Data set [19] concerns the target Proto-oncogene tyrosine-protein kinase Src (Homo sapiens, UniProt P12931). In words: Inhibition of human SRC by time-resolved fluorescence or time-resolved fluorescence assay.
The nature of data set [20]: Cardiotoxicity in Langendorff's isolated guinea pig heart perfusion model in assessed as induction of QTc prolongation. Type of data set: toxicity, tissue-based, Cavia porcellus.
For data set [21], the species on record is Rattus norvegicus. In words: Cardiotoxicity in rat assessed as effect on blood pressure. The data set is classed as toxicity, organism-based.
The nature of data set [22]: Cardiotoxicity in monkey assessed as effect on blood pressure. Type of data set: toxicity, Macaca mulatta. The conditions noted are these: rhesus monkey.
Data set [23] concerns Rattus norvegicus. Nature of the data set: Cardiotoxicity in telemetry instrumented rat assessed as effect on blood pressure at 30 mg/kg. The data set is classed as toxicity, organism-based. As to conditions: in vivo.
A short description of data set [24]: AUC in rat at 30 mg/kg. The conditions noted are these: in vivo. The data set is classed as ADME, organism-based.
Data set [25] has as its system Mus musculus. In words: Toxicity in human SNU16 cells xenografted CAnN.Cg-Foxn1 (nu)/CrlCrlj nu/nu BALB nu/nu mouse assessed as induction of body weight loss at 30 and 100 mg/kg, po qd for 11 days. Type of data set: organism-based, SNU-16. As to conditions: in vivo, 264 h.
The nature of data set [26]: Permeability from apical to basolateral side in human Caco2 cells at 10 uM incubated for 120 mins by LC-MS/MS method. As to conditions: Caco-2, read-out: permeability. Type of data set: ADME, cell-based. A general note: Caco-2 monolayers are a common model of the intestinal barrier.

Molecules are shown by their SMILES. In brackets after ≈: the same amount, converted by molar mass. Activity calls are given as the source filed them. No cut-off for these calls is given here. A value given as a limit tells only on which side of the number the result lay.

Chain of Vascular endothelial growth factor receptor 2 (P35968 whole entry): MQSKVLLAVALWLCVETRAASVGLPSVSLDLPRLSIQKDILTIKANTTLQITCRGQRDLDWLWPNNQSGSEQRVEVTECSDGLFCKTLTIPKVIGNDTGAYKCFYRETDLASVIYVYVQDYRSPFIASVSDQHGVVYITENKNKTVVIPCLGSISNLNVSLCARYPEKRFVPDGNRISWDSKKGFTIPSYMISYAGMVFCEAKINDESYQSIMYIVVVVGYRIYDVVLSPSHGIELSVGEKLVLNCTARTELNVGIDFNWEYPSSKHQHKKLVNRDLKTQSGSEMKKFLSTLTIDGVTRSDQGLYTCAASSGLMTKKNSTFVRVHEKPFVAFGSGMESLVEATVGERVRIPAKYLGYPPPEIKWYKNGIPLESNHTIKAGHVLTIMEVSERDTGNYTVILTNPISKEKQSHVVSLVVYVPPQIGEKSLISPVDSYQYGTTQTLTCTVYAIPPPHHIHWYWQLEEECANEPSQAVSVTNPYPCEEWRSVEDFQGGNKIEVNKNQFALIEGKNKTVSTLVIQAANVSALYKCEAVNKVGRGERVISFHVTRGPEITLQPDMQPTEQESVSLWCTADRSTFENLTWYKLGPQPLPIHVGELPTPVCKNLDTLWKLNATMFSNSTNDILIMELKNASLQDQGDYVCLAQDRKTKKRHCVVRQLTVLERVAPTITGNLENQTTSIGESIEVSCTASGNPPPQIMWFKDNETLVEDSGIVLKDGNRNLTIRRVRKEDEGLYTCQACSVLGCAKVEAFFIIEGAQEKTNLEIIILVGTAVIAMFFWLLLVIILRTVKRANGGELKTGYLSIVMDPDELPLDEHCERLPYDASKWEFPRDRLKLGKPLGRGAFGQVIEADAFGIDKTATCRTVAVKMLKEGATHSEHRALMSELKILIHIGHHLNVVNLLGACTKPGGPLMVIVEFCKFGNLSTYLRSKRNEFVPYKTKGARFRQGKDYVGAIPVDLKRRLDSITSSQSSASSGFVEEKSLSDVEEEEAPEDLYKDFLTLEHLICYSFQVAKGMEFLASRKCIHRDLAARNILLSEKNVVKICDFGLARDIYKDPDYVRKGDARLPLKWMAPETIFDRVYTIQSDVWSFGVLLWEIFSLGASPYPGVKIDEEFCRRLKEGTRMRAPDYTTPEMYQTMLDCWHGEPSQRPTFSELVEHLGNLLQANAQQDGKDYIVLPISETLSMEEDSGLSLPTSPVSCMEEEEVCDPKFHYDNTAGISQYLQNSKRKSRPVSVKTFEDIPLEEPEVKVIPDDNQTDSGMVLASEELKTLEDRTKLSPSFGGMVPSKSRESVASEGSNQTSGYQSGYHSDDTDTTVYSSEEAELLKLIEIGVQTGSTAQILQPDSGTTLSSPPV
Chain of Voltage-gated inwardly rectifying potassium channel KCNH2 (Q12809 whole entry): as the sequence (Q12809 whole entry) above
Chain of Proto-oncogene tyrosine-protein kinase Src (P12931 2-536 limits assumed): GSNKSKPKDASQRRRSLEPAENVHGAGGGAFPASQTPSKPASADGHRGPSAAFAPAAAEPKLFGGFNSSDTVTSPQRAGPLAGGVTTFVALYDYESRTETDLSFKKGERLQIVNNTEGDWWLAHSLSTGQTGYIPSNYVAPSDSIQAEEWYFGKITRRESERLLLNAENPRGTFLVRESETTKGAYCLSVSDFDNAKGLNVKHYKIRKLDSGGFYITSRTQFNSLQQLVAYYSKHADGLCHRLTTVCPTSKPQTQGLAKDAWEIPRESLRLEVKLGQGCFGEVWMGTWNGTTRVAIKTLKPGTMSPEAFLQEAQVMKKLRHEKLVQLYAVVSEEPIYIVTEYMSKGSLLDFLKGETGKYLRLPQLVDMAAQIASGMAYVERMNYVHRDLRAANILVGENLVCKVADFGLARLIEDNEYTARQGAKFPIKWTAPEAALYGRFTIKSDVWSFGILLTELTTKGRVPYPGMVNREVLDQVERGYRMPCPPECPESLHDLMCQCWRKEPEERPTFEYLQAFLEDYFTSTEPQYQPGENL

As for `Nc1c(C(=O)c2cc3ccccc3[nH]2)cnn1-c1ccccc1Cl`, the half-inhibitory concentration (IC50) in [1] came to 410 nM; in [2], 2900 nM; in data set [3], 2700 nM.
For the compound `Cc1nc2ccc(-n3ncc(C(=O)c4cc5ccccc5[nH]4)c3N)cc2[nH]1` [FGFR INHIBITOR DEBIO 1347], the concentration for half-maximal inhibition (IC50) is 17 nM in [2] and 5900 nM in data set [3]. The inhibition in vivo at 30 mg/kg in data set [4] was 106%. Moreover, the inhibition in vivo at 100 mg/kg in data set [5] is 147%. In addition, the AUC in [6] turned out to be 26000 ng·h/mL. The TGI result in [7], in [8], in [9] and in [10] was “Active” each time.
For `Nc1c(C(=O)c2cc3ccccc3[nH]2)cnn1-c1cc(O)ccc1Cl`, the concentration for half-maximal inhibition (IC50) in data set [1] is 28 nM; in data set [2], 360 nM; in data set [3], 2600 nM. In [11], this compound displayed a solubility at 2 h of 20 µg/mL (≈ 56.7 µM). In [12], the microsomal CLint at 1 µM came out at 15 µL/min/mg.
`Nc1c(C(=O)c2ccc3ncccc3c2)cnn1-c1cc(O)ccc1Cl`: the IC50 in data set [1] was determined as 1600 nM; in [2], 8900 nM; in data set [3], 9300 nM.
Taken in the same sequence, the figures for `Nc1c(C(=O)c2cc3ccccc3o2)cnn1-c1cc(O)ccc1Cl` were 170 nM, 3300 nM and 8200 nM.
For the compound `Cc1nc2cc(-n3ncc(C(=O)c4cc5ccc(S(C)(=O)=O)cc5[nH]4)c3N)ccc2[nH]1`, the values for the IC50 in [1], in data set [2] and in data set [3] were 1000 nM, 82 nM and 37000 nM, respectively. Also, in data set [12], the microsomal CLint at 1 µM was 5.4 µL/min/mg.
Take `Cc1nc2cc(-n3ncc(C(=O)c4cc5ccc(CN6CCOCC6)cc5[nH]4)c3N)ccc2[nH]1`: the IC50 in [1] was 120 nM; in [2] it was 2.6 nM; in data set [13], over 10000 nM. The microsomal CLint at 1 µM in data set [12] amounted to 9.6 µL/min/mg. Besides, the inhibition at 10 µM in data set [14] is 15%. Moreover, the bioavailability in data set [15] worked out at 0%.
For the compound `Nc1c(C(=O)c2cc3ccccc3[nH]2)cnn1-c1ccc2[nH]c(=O)[nH]c2c1`, the IC50 is over 50000 nM in data set [16], 2700 nM in data set [1], over 50000 nM in [17] and over 50000 nM in data set [18].
Turning to `Nc1c(C(=O)c2cc3cc(CN4CCOCC4)ccc3[nH]2)cnn1-c1cc(O)ccc1Cl`, the figures for the half-inhibitory concentration (IC50) in [1], in data set [2] and in [3] were 2.4 nM, 550 nM and 3600 nM, respectively. For the same compound, the concentration in solution in [11] (solubility at 2 h) was 40 µg/mL (≈ 88.5 µM). Further, the microsomal CLint at 1 µM in [12] was determined as 20 µL/min/mg.
With `Cc1cc2cc(-n3ncc(C(=O)c4cc5ccccc5[nH]4)c3N)ccc2[nH]1`, the IC50 in data set [2] was 53 nM; in data set [3] it was 5300 nM. Further, the solubility at 2 h in [11] stood at 10 µg/mL (≈ 28.1 µM). Besides, the microsomal CLint at 1 µM in [12] was found to be 10 µL/min/mg.
For `CCc1nc2cc(-n3ncc(C(=O)c4cc5ccccc5[nH]4)c3N)ccc2[nH]1`, the 50% inhibitory concentration (IC50) in data set [1] stood at 1700 nM; in [2], 77 nM; in data set [3], 1500 nM. In [11], this compound yielded a solubility at 2 h of 42 µg/mL (≈ 113 µM). Moreover, in data set [12], the microsomal CLint at 1 µM was 23 µL/min/mg.
For the compound `Cc1nc2ccc(-n3ncc(C(=O)c4cc5cc(CN6CCOCC6)ccc5[nH]4)c3N)cc2[nH]1`, the IC50 in data set [1] was 210 nM; in data set [2], 17 nM; in [13], over 10000 nM; in data set [3], 8900 nM. In addition, the microsomal CLint at 1 µM in data set [12] came out at 15 µL/min/mg. Further, the inhibition at 10 µM in data set [14] was determined as 7%.
Take `Nc1c(C(=O)c2cc3ccccc3[nH]2)cnn1-c1ccc2nc[nH]c2c1`: the IC50 amounted to 340 nM in [1], 380 nM in data set [2] and 17000 nM in [3]. The compound also returned a solubility at 2 h in data set [11] of 37 µg/mL (≈ 108 µM). For the same compound, the microsomal CLint at 1 µM in data set [12] stood at 4.2 µL/min/mg.
On to `Cc1nc2cc(-n3ncc(C(=O)c4cc5ccccc5[nH]4)c3N)ccc2[nH]1` [FGFR INHIBITOR DEBIO 1347], for which the 50% inhibitory concentration (IC50) in data set [16] was 290 nM; in data set [1], 2100 nM; in data set [19] it was 5900 nM; in [13] it was 6900 nM. Further, the solubility at 2 h in data set [11] came to 29 µg/mL (≈ 81.4 µM). In addition, the microsomal CLint at 1 µM in data set [12] worked out at 13 µL/min/mg. Moreover, the inhibition at 10 µM in [14] amounted to 69%. This compound also showed a bioavailability in data set [15] of 30%. In addition, the Activity result in data set [20], in data set [21], in data set [22], in data set [23] and in data set [25] was “Non-Toxic” in each case. In addition, the AUC in data set [24] was determined as 102 µg·h/mL.
As for `Cc1nc2cc(-n3ncc(C(=O)c4cc5ccc(-c6ccccc6)cc5[nH]4)c3N)ccc2[nH]1`, the concentration for half-maximal inhibition (IC50) in [1] is 3400 nM; in data set [19] it was over 50000 nM; in data set [2], 84 nM; in [13] it was over 10000 nM. Besides, the microsomal CLint at 1 µM in [12] came out at 3.2 µL/min/mg. Moreover, the inhibition at 10 µM in data set [14] is 15%. Moreover, in [15], the bioavailability is 3%.
Regarding `Cc1ccc2cc(C(=O)c3cnn(-c4ccc5nc(C)[nH]c5c4)c3N)[nH]c2c1`, the 50% inhibitory concentration (IC50) in [1] was 370 nM; in [13] it was 6900 nM; in data set [3], 9700 nM. Moreover, the microsomal CLint at 1 µM in data set [12] stood at 140 µL/min/mg. Further, the inhibition at 10 µM in [14] was 64%.
On to `Nc1c(C(=O)c2cc3ccccc3[nH]2)cnn1-c1ccc2[nH]ccc2c1`, for which the figures for the half-maximal inhibitory concentration (IC50) in data set [2] and in [3] were 190 nM and 470 nM, respectively. Moreover, the concentration in solution in [11] (solubility at 2 h) was 4 µg/mL (≈ 11.7 µM). For the same compound, the microsomal CLint at 1 µM in data set [12] was 4.4 µL/min/mg.
Turning to `Cc1nc2cc(-n3ncc(C(=O)c4cc5ccc(Br)cc5[nH]4)c3N)ccc2[nH]1`, the IC50 in data set [1] was 290 nM; in data set [19], over 50000 nM; in [2], 52 nM; in [13], over 10000 nM; in data set [3], 11000 nM. The microsomal CLint at 1 µM in data set [12] is 4.2 µL/min/mg. Further, in data set [26], the Papp A→B at 2 h, 10 µM came out at 2.2 ×10⁻⁶ cm/s. Also, in data set [14], the inhibition at 10 µM worked out at 31%. This compound also came in with a bioavailability in data set [15] of 20%.
For `Cc1nc2cc(-n3ncc(C(=O)c4cc5ccc(CN6CCC(F)(F)CC6)cc5[nH]4)c3N)ccc2[nH]1`, the half-inhibitory concentration (IC50) amounted to 280 nM in [1], 6 nM in [2] and 8600 nM in data set [13]. Further, the microsomal CLint at 1 µM in data set [12] was determined as 14 µL/min/mg. The inhibition at 10 µM in [14] amounted to 58%. The bioavailability in [15] is 5%.
Consider `Cc1cccc(C(=O)c2cnn(-c3cc(O)ccc3Cl)c2N)c1`, for which the 50% inhibitory concentration (IC50) in data set [1] is 2900 nM; in [2], 15000 nM; in data set [3], over 20000 nM.

As a reminder, the IC50 is the concentration needed to halve the response being measured. One may read the solubility as the dissolved amount per volume that the medium holds. The inhibition is the percentage by which the read-out fell short of the control. Usually bioavailability stands for dose-corrected exposure relative to a reference, in per cent.

For the origin of these results see ChEMBL document CHEMBL3860107, “Discovery of [5-Amino-1-(2-methyl-3H-benzimidazol-5-yl)pyrazol-4-yl]-(1H-indol-2-yl)methanone (CH5183284/Debio 1347), An Orally Available and Selective Fibroblast Growth Factor Receptor (FGFR) Inhibitor” (J Med Chem, 2016).
